Results published in US20070093520A1, “Method of treatment of diarrhea-predominant irritable bowel syndrome in a subject” (priority 2005, published 2007).

Tested on: diarrhea-predominant IBS subjects
Test: 3007 Study: open-label 52-week safety study, adverse events and withdrawals
Details: for Number of subjects who died / Primary reason for withdrawal: Adverse event and lack of efficacy / Primary reason for withdrawal: Baseline complaint/adverse event / Primary reason for withdrawal: Lack of efficacy: all enrolled
[1] = Placebo/Cilansetron 2 mg, N=279
[2] = Placebo/Cilansetron 2 mg, N=279, % of appropriate gender
[3] = Placebo/Cilansetron 2 mg, gender-specific

Cc1nccn1C[C@H]1CCc2c(c3cccc4c3n2CCC4)C1=O [cilansetron, (R)-(−)-4,5,6,8,9,10-hexahydro-10-[(2-methyl-1H-imidazol-1-yl)methyl]-11H-pyrido-[3,2,1-jk]-carbazol-11-one]
TEAE leading to permanent discontinuation: Urticaria NOS [1]: 1 (<1%) n (%)
TEAE leading to permanent discontinuation: Vertigo [1]: 0 n (%)
TEAE leading to permanent discontinuation: Visual Acuity Reduced [1]: 1 (<1%) n (%)
TEAE leading to permanent discontinuation: Vomiting NOS [1]: 0 n (%)
TEAE leading to permanent discontinuation: White Blood Cells Urine Positive [1]: 0 n (%)
Total Number of Subjects with at Least One TEAE Leading to Discontinuation of Study Medication [1]: 50 (18%) n (%)
TEAE leading to permanent discontinuation: Benign Ovarian Tumour* [2]: 1 (<1%) n (%)
TEAE leading to permanent discontinuation: Breast Cancer NOS* [2]: 2 (1%) n (%)
TEAE leading to permanent discontinuation: Ovarian Cancer NOS* [2]: 0 n (%)
TEAE leading to permanent discontinuation: Ovarian Cystadenofibroma* [2]: 1 (<1%) n (%)
TEAE leading to permanent discontinuation: Pregnancy NOS* [2]: 0 n (%)
TEAE: Female Reproductive Tract Infections* [3]: 0 n (%)
TEAE: Prostate Examination Abnormal* [3]: 0 n (%)
TEAE: Smear Cervix Abnormal* [3]: 0 n (%)
TEAE: Vaginal Candidiasis* [3]: 1 (<1%) n (%)
TEAE: Vaginitis Bacterial NOS* [3]: 0 n (%)
TEAE: Vaginitis* [3]: 0 n (%)
TEAE: Vaginosis Fungal NOS* [3]: 1 (<1%) n (%)
potential complications of constipation (Studies 3006 and 3007): two
constipation episodes reported as SAEs (Study 3007): None
constipation that led to dose reduction (Study 3007): seven
deaths (Study 3007): No deaths
longest duration of a constipation episode (Study 3007): 189 days
mean longest duration of a constipation episode (Study 3007): 10.4 days
median longest duration of a constipation episode (Study 3007): four
subjects mildly bothered by the constipation (Study 3007): 8%
subjects moderately bothered by the constipation (Study 3007): 7%
subjects reporting only one constipation episode (Study 3007): 15%
subjects with a constipation episode that lasted longer than 30 days (Study 3007): Thirteen
subjects with an SAE reported as probably related to study medication (colitis ischemic) (Study 3007): One
subjects with treatment-emergent SAEs reported as unlikely related to study medication (Study 3007): five
treatment-emergent SAE: angina pectoris (Study 3007): two
treatment-emergent SAE: breast cancer NOS (Study 3007): two
treatment-emergent SAE: chest pain (Study 3007): two
treatment-emergent SAEs of cardiac disorders (Study 3007): four
treatment-emergent rectal hemorrhage (Study 3007): Eight
overall safety, tolerability and QOL finding (Study 3007, 2 mg TID over 52 weeks): generally safe, well-tolerated, and improved QOL
TEAE incidence: abdominal pain NOS (Study 3007, 18 to 40 years): 8%
TEAE incidence: constipation (Study 3007, 18 to 40 years): 19%
TEAE incidence: flatulence, bloating and distension (Study 3007, 18 to 40 years): 8%
TEAE incidence: headache NOS (Study 3007, 18 to 40 years): 7%
TEAE incidence: lower respiratory tract and lung infections (Study 3007, 18 to 40 years): 4%
TEAE incidence: nausea and vomiting symptoms (Study 3007, 18 to 40 years): 9%
TEAE incidence: sinusitis NOS (Study 3007, 18 to 40 years): 9%
TEAE incidence: abdominal pain NOS (Study 3007, 41 to 64 years): 5%
TEAE incidence: constipation (Study 3007, 41 to 64 years): 23%
TEAE incidence: flatulence, bloating and distension (Study 3007, 41 to 64 years): 5%
TEAE incidence: headache NOS (Study 3007, 41 to 64 years): 6%
TEAE incidence: lower respiratory tract and lung infections (Study 3007, 41 to 64 years): 6%
TEAE incidence: nausea and vomiting symptoms (Study 3007, 41 to 64 years): 6%
TEAE incidence: sinusitis NOS (Study 3007, 41 to 64 years): 7%
TEAE incidence: abdominal pain NOS (Study 3007, 65 years or older): 12%
TEAE incidence: constipation (Study 3007, 65 years or older): 37%
TEAE incidence: flatulence, bloating and distension (Study 3007, 65 years or older): 12%
TEAE incidence: headache NOS (Study 3007, 65 years or older): 1%
TEAE incidence: lower respiratory tract and lung infections (Study 3007, 65 years or older): 1%
TEAE incidence: nausea and vomiting symptoms (Study 3007, 65 years or older): 1%
TEAE incidence: sinusitis NOS (Study 3007, 65 years or older): 3%
SAE: Abdominal Pain Upper (Study 3007, C/C): 1 (<1%) n (%)
SAE: Adenomyosis* (Study 3007, C/C): 1 (<1%) n (%)
SAE: Angina Pectoris (Study 3007, C/C): 2 (<1%) n (%)
SAE: Appendicitis (Study 3007, C/C): 1 (<1%) n (%)
SAE: Asthma NOS (Study 3007, C/C): 0 n (%)
SAE: Benign Ovarian Tumour* (Study 3007, C/C): 0 n (%)
SAE: Bladder Prolapse (Study 3007, C/C): 0 n (%)
SAE: Bone Neoplasm Malignant (Study 3007, C/C): 1 (<1%) n (%)
SAE: Breast Cancer NOS* (Study 3007, C/C): 0 n (%)
SAE: Bronchopneumonia NOS (Study 3007, C/C): 0 n (%)
SAE: Calculus Ureteric (Study 3007, C/C): 1 (<1%) n (%)
SAE: Cardiac Disorders (Study 3007, C/C): 3 (1%) n (%)
SAE: Chest Pain (Study 3007, C/C): 1 (<1%) n (%)
SAE: Cholelithiasis (Study 3007, C/C): 1 (<1%) n (%)
SAE: Colitis Ischaemic (Study 3007, C/C): 0 n (%)
SAE: Depression (Study 3007, C/C): 0 n (%)
SAE: Endometriosis* (Study 3007, C/C): 1 (<1%) n (%)
SAE: Fibroma NOS (Study 3007, C/C): 0 n (%)
SAE: Food Allergy (Study 3007, C/C): 0 n (%)
SAE: Gastritis NOS (Study 3007, C/C): 1 (<1%) n (%)
SAE: Gastroenteritis NOS (Study 3007, C/C): 1 (<1%) n (%)
SAE: Gastrointestinal Disorders (Study 3007, C/C): 3 (1%) n (%)
SAE: General Disorders and Administration Site Conditions (Study 3007, C/C): 1 (<1%) n (%)
SAE: Hallucination NOS (Study 3007, C/C): 0 n (%)
SAE: Hallucination, Auditory (Study 3007, C/C): 0 n (%)
SAE: Heat Exhaustion (Study 3007, C/C): 1 (<1%) n (%)
SAE: Hepatitis NOS (Study 3007, C/C): 1 (<1%) n (%)
SAE: Hepatobiliary Disorders (Study 3007, C/C): 2 (<1%) n (%)
SAE: Immune System Disorders (Study 3007, C/C): 0 n (%)
SAE: Infections and Infestations (Study 3007, C/C): 1 (<1%) n (%)
SAE: Injury, Poisoning and Procedural Complications (Study 3007, C/C): 2 (<1%) n (%)
SAE: Irritable Bowel Syndrome Aggravated (Study 3007, C/C): 1 (<1%) n (%)
SAE: Leiomyoma NOS (Study 3007, C/C): 1 (<1%) n (%)
SAE: Loss of Consciousness (Study 3007, C/C): 1 (<1%) n (%)
SAE: Myocardial Infarction (Study 3007, C/C): 1 (<1%) n (%)
SAE: Neoplasms Benign, Malignant and Unspecified (Incl Cysts and Polyps) (Study 3007, C/C): 3 (1%) n (%)
SAE: Nervous System Disorders (Study 3007, C/C): 2 (<1%) n (%)
SAE: Non-Accidental Overdose (Study 3007, C/C): 1 (<1%) n (%)
SAE: Ovarian Cancer NOS* (Study 3007, C/C): 1 (<1%) n (%)
SAE: Ovarian Cystadenofibroma* (Study 3007, C/C): 0 n (%)
SAE: Pregnancy NOS* (Study 3007, C/C): 1 (<1%) n (%)
SAE: Pregnancy, Puerperium and Perinatal Conditions (Study 3007, C/C): 1 (<1%) n (%)
SAE: Psychiatric Disorders (Study 3007, C/C): 0 n (%)
SAE: Psychotic Disorder NOS (Study 3007, C/C): 0 n (%)
SAE: Renal and Urinary Disorders (Study 3007, C/C): 1 (<1%) n (%)
SAE: Reproductive System and Breast Disorders (Study 3007, C/C): 2 (<1%) n (%)
SAE: Respiratory, Thoracic and Mediastinal Disorders (Study 3007, C/C): 0 n (%)
SAE: Sinusitis Acute NOS (Study 3007, C/C): 0 n (%)
SAE: Status Epilepticus (Study 3007, C/C): 1 (<1%) n (%)
SAE: Suicidal Ideation (Study 3007, C/C): 0 n (%)
SAE: Supraventricular Tachycardia (Study 3007, C/C): 0 n (%)
SAE: Urinary Tract Infection NOS (Study 3007, C/C): 0 n (%)
SAE: Uterine Polyp NOS* (Study 3007, C/C): 1 (<1%) n (%)
SAE: Vaginal Cyst* (Study 3007, C/C): 1 (<1%) n (%)
TEAEs that led to permanent discontinuation of study medication (Study 3007, C/C): 13%
Total Number of Subjects with at Least One Serious Adverse Event (Study 3007, C/C): 19 (7%) n (%)
subjects with at least one TEAE (Study 3007, C/C): 86%
subjects with at least one treatment-emergent SAE (Study 3007, C/C): 7%
withdrawal for AE (Study 3007, C/C): 13%
withdrawal for lack of efficacy (Study 3007, C/C): 17%
Number of deaths (Study 3007, C/C (N = 257)): 0 n (%)
Number of subjects who permanently discontinued study medication due to a TEAE (as reported on the AE CRF) (Study 3007, C/C (N = 257)): 33 (13) n (%)
Number of subjects with at least one AE of special interest (Study 3007, C/C (N = 257)): 186 (72) n (%)
Number of subjects with at least one SAE (Study 3007, C/C (N = 257)): 19 (7) n (%)
Number of subjects with at least one TEAE (Study 3007, C/C (N = 257)): 220 (86) n (%)
Number of subjects with at least one TEAE leading to dose reduction (Study 3007, C/C (N = 257)): 7 (3) n (%)
Number of subjects with at least one related TEAE (Study 3007, C/C (N = 257)): 151 (59) n (%)
Number of subjects with at least one severe TEAE (Study 3007, C/C (N = 257)): 50 (19) n (%)
Number of subjects who died (Study 3007, C/C): 0 n (%)
Primary reason for withdrawal: Adverse event and lack of efficacy (Study 3007, C/C): 23 (9) n (%)
Primary reason for withdrawal: Baseline complaint/adverse event (Study 3007, C/C): 10 (4) n (%)
Primary reason for withdrawal: Lack of efficacy (Study 3007, C/C): 20 (8) n (%)
Number of deaths (Study 3007, Overall (N = 536)): 0 n (%)
Number of subjects who permanently discontinued study medication due to a TEAE (as reported on the AE CRF) (Study 3007, Overall (N = 536)): 83 (15) n (%)
Number of subjects with at least one AE of special interest (Study 3007, Overall (N = 536)): 371 (69) n (%)
Number of subjects with at least one SAE (Study 3007, Overall (N = 536)): 29 (5) n (%)
Number of subjects with at least one TEAE (Study 3007, Overall (N = 536)): 437 (82) n (%)
Number of subjects with at least one TEAE leading to dose reduction (Study 3007, Overall (N = 536)): 11 (2) n (%)
Number of subjects with at least one related TEAE (Study 3007, Overall (N = 536)): 301 (56) n (%)
Number of subjects with at least one severe TEAE (Study 3007, Overall (N = 536)): 94 (18) n (%)
Number of subjects who died (Study 3007, Overall): 0 n (%)
Primary reason for withdrawal: Adverse event and lack of efficacy (Study 3007, Overall): 57 (10) n (%)
Primary reason for withdrawal: Baseline complaint/adverse event (Study 3007, Overall): 24 (4) n (%)
Primary reason for withdrawal: Lack of efficacy (Study 3007, Overall): 45 (8) n (%)
SAE: Abdominal Pain Upper (Study 3007, P/C): 0 n (%)
SAE: Adenomyosis* (Study 3007, P/C): 0 n (%)
SAE: Angina Pectoris (Study 3007, P/C): 0 n (%)
SAE: Appendicitis (Study 3007, P/C): 0 n (%)
SAE: Asthma NOS (Study 3007, P/C): 1 (<1%) n (%)
SAE: Benign Ovarian Tumour* (Study 3007, P/C): 1 (<1%) n (%)
SAE: Bladder Prolapse (Study 3007, P/C): 1 (<1%) n (%)
SAE: Bone Neoplasm Malignant (Study 3007, P/C): 0 n (%)
SAE: Breast Cancer NOS* (Study 3007, P/C): 2 (1%) n (%)
SAE: Bronchopneumonia NOS (Study 3007, P/C): 1 (<1%) n (%)
SAE: Calculus Ureteric (Study 3007, P/C): 0 n (%)
SAE: Cardiac Disorders (Study 3007, P/C): 1 (<1%) n (%)
SAE: Chest Pain (Study 3007, P/C): 1 (<1%) n (%)
SAE: Cholelithiasis (Study 3007, P/C): 0 n (%)
SAE: Colitis Ischaemic (Study 3007, P/C): 1 (<1%) n (%)
SAE: Depression (Study 3007, P/C): 1 (<1%) n (%)
SAE: Endometriosis* (Study 3007, P/C): 0 n (%)
SAE: Fibroma NOS (Study 3007, P/C): 1 (<1%) n (%)
SAE: Food Allergy (Study 3007, P/C): 1 (<1%) n (%)
SAE: Gastritis NOS (Study 3007, P/C): 0 n (%)
SAE: Gastroenteritis NOS (Study 3007, P/C): 0 n (%)
SAE: Gastrointestinal Disorders (Study 3007, P/C): 1 (<1%) n (%)
SAE: General Disorders and Administration Site Conditions (Study 3007, P/C): 1 (<1%) n (%)
SAE: Hallucination NOS (Study 3007, P/C): 1 (<1%) n (%)
SAE: Hallucination, Auditory (Study 3007, P/C): 1 (<1%) n (%)
SAE: Heat Exhaustion (Study 3007, P/C): 0 n (%)
SAE: Hepatitis NOS (Study 3007, P/C): 0 n (%)
